Values joined by “and” are separate entries in the source; they are usually repeats but may differ in a detail not shown here. Identical values can stand only once. “Also recorded” adds a separate entry of the source. Like-named read-outs stand apart in the source and are kept apart here.
How the values were obtained:
Type in all cases: in vivo
[1] = system: juvenile lemon and nurse sharks; assay: Tonic immobility, Micropipette Assay, summary over species; settings: for Micropipette Y (termination of tonic immobility), trials of trials: oral dose; for screening result: lemon and nurse sharks
Procedure: (§1) One bioassay used to observe and measure flight response is the tonic immobility test. Tonic immobility is a state of paralysis that typically occurs when a shark is subject to inversion of its body along the longitudinal axis. This state is called “tonic,” and the shark can remain in this state for up to 15 minutes thereby allowing researchers to observe effects of chemical repellents. The “tonic” state of the shark is first established by releasing seawater in proximity to the “tonic” shark with the same delivery instrument and at the same distance as a “test” repellent compound will be released. Some controls are released with a high flow rate (30 mL/sec) in order to establish that sharks are not awakened by a jet of fluid over their noses. Once behavioral controls are established, a compound or composition that may have a repelling effect is delivered to the shark. If the compound or composition engenders a flight response, the shark will awaken from the tonic state and rapidly attempt to flee the delivered repellent. Using this tonic immobility bioassay researches can quantify the strength of a repellent effect.
A fourth method of delivery was called the “Micropipette Assay” method of delivery. In this method, a very small dose (fraction of a mL) of a test substance was delivered directly into a shark's mouth. […] A response, such as a cough or other notable action of the shark, was usually noted when effective gustatory repellents were delivered directly into a shark's mouth while in tonic immobility.
The Micropipette Assay method has not proven to be a particularly effective method of assaying for a flight response in elasmobranchs. The Micropipette Assay method is, nevertheless, an excellent method for specifying that a gustatory response has occurred. It is effective for specifying a gustatory response because the micropipette delivery method allows direct delivery of an entire bolus of test substance into the mouth of the shark being tested.
An oral dose of no more than 400 microliters was then delivered by micropipette into the mouth of a juvenile nurse shark. Tonic immobility was terminated. For each derivative of butyric acid and each naturally occurring acid listed in Table 9, a first micropipette assay was performed on a juvenile lemon shark with no more than 100 microliters of test acid in an oral dose. A second micropipette assay was then performed on a juvenile nurse shark with no more than 400 microliters of test acid in an oral dose. In each test, tonic immobility was terminated.
In a first set of studies on the effectiveness of carboxylic acids as elasmobranch repellents, each tested substance was subjected to the following protocol. […] An oral dose of no more than 400 microliters was then delivered by micropipette into the mouth of a juvenile nurse shark. Tonic immobility was terminated. […] The data evidences the gustatory repelling activity of carboxylic acids.

sharks (species pooled) = assay: Tonic immobility, total of delivery methods not including Micropipette assays; settings: species and delivery methods pooled
Procedure: as §1
Table 1, which summarizes the data in Tables 14 and 15, evidences the gustatory repellent characteristics of methylbutanals. In 35 of 36 assays (combining columns “Y” and “R” under the column labeled “Total (Not including Micropipette Assays)” to arrive at a 97% effectiveness rate), including assays on lemon, nurse, tiger and blacktip sharks, the gustatory repellent activity of 3-methylbutanal was established. In 81% of assays, tonic immobility was fully terminated. […] In only a single assay did a shark not respond to treatment with 3-methylbutanal.

[2] = system: sharks (lemon, nurse, blacknose, blacktip pooled); assay: Tonic immobility, Syringe Assay, summary over species
Procedure: as §1
A second delivery method called the “Syringe Assay” method delivered a dose of 60 mL or more of a test chemical repellent from at least one foot, and up to as many as five feet, from a shark. The distance of delivery was determined based on the strength of the water current in the direction of the shark. Time from delivery of the test substance until response was observed, measured and recorded. The “Syringe” method allows a researcher to observe how a diffusing and diluting cloud of test chemical repellent affects the shark's behavior when the shark encounters the delivered cloud of test substance. The “Syringe” method requires relatively large doses because of the diffusion of the cloud over time and distance. Time from delivery to response is related to the size of the bolus delivered from the syringe, distance of the shark from the syringe and water current.
In the Syringe assay about 60 mL or more of valeraldehyde was delivered from one to as many as five feet from the shark depending on the water current. […] Time from delivery to response was related to the size of the bolus delivered from the syringe, distance of the shark from the syringe and water current.

[3] = system: sharks (lemon, nurse, tiger pooled); assay: Tonic immobility, Hd Syringe Assay, summary over species; settings: for Hd-Syringe Y (termination of tonic immobility), trials of trials: species pooled; for lowest volume of repellent that terminated tonic immobility: Hd Syringe, lemon and nurse sharks
Procedure: as §1
In Hd-Syringe Assays, the 3-methylbutanal was delivered to the shark's mouth and nares using a 3 mL hypodermic syringe fitted with a 22 gauge needle. The needle was held within 3 inches of the shark's mouth and the test repellent was slowly released from the syringe with a very fine plume in the water column. Any response was denoted. If a response occurred during a measurable time after delivery of the test chemical, the time between delivery and response was noted. If a response occurred immediately or the response occurred before a measurable time could be established, no time to response was noted.

[4] = system: sharks (lemon, nurse, blacktip, tiger, blacknose pooled); assay: Tonic immobility, Syringe 3/5/10 Assay, summary over species
Procedure: as §1
In the tonic immobility studies disclosed herein, several different methods were employed for delivery of repelling compounds. A first method for delivery of chemical repellent in tonic immobility studies employed a “Syringe 3/5/10 Assay” method. The “Syringe 3/5/10 Assay” method is so named because a test repellent is delivered to a shark from a distance of about “3” inches with a bolus of about “5” mL with a response to the test repellent considered positive if the shark reacts with a change in behavior within less than about “10” seconds from the time of delivery.
The “3/5/10 Syringe Assay” as employed herein delivered a dose of 5-6 mL of a test chemical repellent from a syringe fixed with a needle having a gauge of about 22 from a distance at least 3 inches in front of a shark. Because the test chemical repellent was delivered at a distance from the shark's nares and mouth, a cloud of test chemical repellent was dispersed over the shark within the water column. The dispersed test repellent was subject to water current direction, dispersion and dilution. As a result, a flight response within 10 seconds was considered a positive repellency response. […] Time from delivery to response is related to the size of the bolus delivered from the syringe, distance of the shark from the syringe and water current.
In Syringe 3/5/10 Assays, 5-6 mL of 3-methylbutanal was delivered at least 3 inches in front of the shark's mouth. A cloud of the repellent dispersed over the shark within the water column. […] As noted above, because the dispersion of the chemical repellent upon delivery is affected by volume of repellent, water current, and other factors, the time between delivery and response was not correlatable with the potency of the repellent.

[5] = juvenile lemon and nurse sharks

SMILES | Micropipette Y (termination of tonic immobility), trials of trials [1, 5] | screening result [1] | Total (Not including Micropipette assays / Effective Delivery Methods) Y, trials of trials (sharks (species pooled)) | Syringe Y (termination of tonic immobility), trials of trials [2] | other results
CCC(=O)C(=O)O [2-Ketobutyric Acid] | 2/2 | repellents | – | – | –
O=C(O)/C=C/c1ccccc1 [trans-Cinnamic acid] | 2/2 | – | – | – | –
C=CCC(=O)O [3-Butenoic Acid (vinylacetic acid), 3-Butenoic Acid] | 2/2 | shark repelling compounds | – | – | –
CC(=O)CCCC(=O)O [4-Acetylbutyric Acid] | 2/2 | repellents | – | – | –
CCCCCC=O [Capronaldehyde, capronaldehyde] | – | – | 1/1 | 1/1 | Total Y, percent of trials (sharks (species pooled)): 100%
CCCCC=O [Valeraldehyde, valeraldehyde] | – | – | 6/6 | 1/1 | Total Y, percent of trials (sharks (species pooled)): 100%; Total (Not including Micropipette assays / Effective Delivery Methods) Y, trials of trials (sharks (species pooled); listed as valeraldehyde): terminated tonic immobility; also recorded: six of six; Micropipette assays with a gustatory response (termination or behavior change) [1, 5]: six of six; also recorded: all Micropipette assays showed a response; Hd-Syringe Y (termination of tonic immobility), trials of trials [3]: 5/5
CC(C)C(C)C(=O)O (stereo not shown) [2,3-Dimethylbutyric Acid] | 2/2 | repellents | – | – | –
O=C(O)CC(CC(=O)O)C(=O)O [Tricarballylic Acid] | 2/2 | – | – | – | –
CC(N)CC(=O)O (stereo not shown) [3-Aminobutyric Acid] | 2/2 | repellents | – | – | –
CC(C)=CC=O [3-methylbutenal] | – | – | – | – | lowest volume of repellent that terminated tonic immobility [3]: 350 µL; Hd-Syringe Y (termination of tonic immobility), trials of trials [3]: All assays resulted in termination of tonic immobility and four of four and 4/4; Hd-Syringe Y (termination of tonic immobility), trials of trials ([3]; listed as 3-Methylbutenal): 4/4
CC(O)C(=O)O (stereo not shown) [lactic acid] | – | – | – | – | Syringe 3/5/10 N (no response), trials of trials [4]: no behavioral change and 1/3; Syringe 3/5/10 Y (termination of tonic immobility), trials of trials [4]: two of three and 2/3
COc1ccc(C=O)cc1 [Anisaldehyde, anisaldehyde] | – | – | – | 1/1 | –
CC=C(C)C=O [2-methylbutenal] | – | – | – | – | lowest volume of repellent that terminated tonic immobility [3]: 300 µL; Hd-Syringe Y (termination of tonic immobility), trials of trials [3]: All assays resulted in termination of tonic immobility and four of four and 4/4; Hd-Syringe Y (termination of tonic immobility), trials of trials ([3]; listed as 2-Methylbutenal): 4/4
CCC(C)(C)C(=O)O [2,2-Dimethylbutyric Acid] | 2/2 | repellents | – | – | –
CC(C)C=O [Isobutyraldehyde, isobutyraldehyde] | – | – | 4/4 | 4/4 | Total Y, percent of trials (sharks (species pooled)): 100%; Syringe Y (termination of tonic immobility), trials of trials ([2]; listed as isobutyraldehyde): All resulted in termination of tonic immobility
CCC(CC)C(=O)O [2-Ethylbutyric Acid] | 2/2 | repellents | – | – | –
O=C(O)CC(O)C(=O)O (stereo not shown) [Hydroxysuccinic Acid] | 2/2 | – | – | – | –
O=C/C=C/c1ccccc1 [Cinnimaldehyde, trans-cinnimaldehyde] | – | – | 2/2 | 2/2 | Syringe Y (termination of tonic immobility), trials of trials ([2]; listed as cinnimaldehyde): two of two; Syringe Y (termination of tonic immobility), trials of trials ([2]; listed as trans-cinnimaldehyde): resulted in termination of tonic immobility
CCC=O [Propionaldehyde, propionaldehyde] | – | – | 4/4 | 4/4 | Total Y, percent of trials (sharks (species pooled)): 100%; Syringe Y (termination of tonic immobility), trials of trials ([2]; listed as propionaldehyde): All resulted in termination of tonic immobility
CC/C=C/C=O [Trans-pentenal, trans-pentenal] | – | – | 5/5 | – | Hd-Syringe Y (termination of tonic immobility), trials of trials [3]: 5/5; Hd-Syringe Y (termination of tonic immobility), trials of trials ([3]; listed as Pentenal): 5/5
CC(C)(C)C=O [Trimethylacetaldehyde, trimethylacetaldehyde] | – | – | 6/7 | 1/2 | Total (Not including Micropipette assays / Effective Delivery Methods) N, trials of trials (sharks (species pooled)): 1/7; Total Y, percent of trials (sharks (species pooled)): 100%; Total (Not including Micropipette assays / Effective Delivery Methods) Y, trials of trials (sharks (species pooled); listed as trimethylacetaldehyde): resulted in termination of tonic immobility; Micropipette assays with a behavioral response within tonic immobility [1, 5]: change of behavior during tonic immobility; Syringe N (no response), trials of trials [2]: 1/2; Hd-Syringe Y (termination of tonic immobility), trials of trials [3]: 5/5
CCC(C)C=O (stereo not shown) [2-methylbutanal] | – | – | 5/5 | – | lowest volume of repellent that terminated tonic immobility [3]: 200 µL; Hd-Syringe Y (termination of tonic immobility), trials of trials [3]: In each assay tonic immobility was terminated and five of five and 5/5

— patent US9456589B2, “Elasmobranch-repelling compounds and methods of use” (priority 2005, dated 2016)
